Experimental data: ChEMBL document CHEMBL1201862, “PubChem BioAssay data set” (2004)
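Growth conditions: 96-well plates. Treatment: test compound, 48 hours, 5 concentrations. Analysis: linear interpolation between bracketing concentrations; unreached endpoints set to highest concentration. GI50 = concentration required for 50% inhibition of growth.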 Calls of active or inactive are those of the source. Rule as the data show it: active = GI50 up to about 1.1 µM and inactive = higher.

What was measured:
Assay in all cases: NCI-60 cell line screen, 48 h
SR = test system: SR
U-251 = test system: U-251
A549 = test system: A549
KM12 = test system: KM12
SF-268 = test system: SF-268
SN12C = test system: SN12C
SW-620 = test system: SW-620
MDA-MB-231 = test system: MDA-MB-231
EKVX = test system: EKVX
NCI/ADR-RES = test system: NCI/ADR-RES
MCF7 = test system: MCF7
RXF 393 = test system: RXF 393
T47D = test system: T47D
HOP-92 = test system: HOP-92
HCT-116 = test system: HCT-116
SNB-75 = test system: SNB-75
ACHN = test system: ACHN
DU-145 = test system: DU-145
K562 = test system: K562
SK-MEL-28 = test system: SK-MEL-28

Measured: GI50

Cc1occc1C(=S)Nc1ccc(Cl)c(/C=N/OC(C)(C)C)c1
inactive: SR 12.9 µM | U-251 13.9 µM | A549 16.6 µM | KM12 15.3 µM | SF-268 22.6 µM | SN12C 15.1 µM | SW-620 18.5 µM | MDA-MB-231 19.7 µM | EKVX 18.4 µM | NCI/ADR-RES 14.7 µM | MCF7 18.1 µM | RXF 393 13.4 µM | T47D 16.5 µM | HOP-92 13 µM | HCT-116 13.5 µM | SNB-75 21.8 µM | ACHN 14.6 µM | DU-145 19.7 µM | K562 31.6 µM | SK-MEL-28 17.7 µM

CC1(C)CCC2=C(O1)/C(=N\Nc1ccc(F)cc1)c1ccccc1C2=O
inactive: SR 21.9 µM | U-251 31.5 µM | A549 16.1 µM | KM12 31.3 µM | SF-268 52.1 µM | SN12C 32.3 µM | SW-620 25.5 µM | MDA-MB-231 46.7 µM | EKVX 22.4 µM | NCI/ADR-RES 71.8 µM | MCF7 27.3 µM | RXF 393 35.2 µM | T47D 17.3 µM | HOP-92 39.5 µM | HCT-116 31.3 µM | SNB-75 22.2 µM | ACHN 38.5 µM | DU-145 18.4 µM | K562 49.5 µM | SK-MEL-28 26.2 µM
